Assay results taken from ChEMBL document CHEMBL4725367, “Novel anticancer Hsp90 inhibitor disubstituted pyrazolyl 2-aminopyrimidine compound 7t induces cell cycle arrest and apoptosis via mitochondrial pathway in MCF-7 cells” (Bioorg Med Chem Lett, 2020).

Experiments:
[1] = target: T1, Heat shock protein HSP90 (Homo sapiens) (UniProt P07900+P08238); assay: Inhibition of HSP90 in human MCF7 cells assessed as induction of apoptosis by measuring live cells at 10 uM measured after 24 hrs by annexinV-FITC/propidium iodide staining based flow cytometry (reference value: 90.77 %); format: cell-based; set-up: scale not given: the % may be the effect or the level left
[2] = target: T1, Heat shock protein HSP90 (Homo sapiens); assay: Inhibition of HSP90 in human MCF7 cells assessed as induction of apoptosis by measuring early apototic cells at 10 uM measured after 24 hrs by annexinV-FITC/propidium iodide staining based flow cytometry (reference value: 1.31 %); format: cell-based; set-up: scale not given: the % may be the effect or the level left
[3] = target: T1, Heat shock protein HSP90 (Homo sapiens); assay: Inhibition of HSP90 in human MCF7 cells assessed as induction of apoptosis by measuring late apototic cells at 10 uM measured after 24 hrs by annexinV-FITC/propidium iodide staining based flow cytometry (reference value: 7.91 %); format: cell-based; set-up: scale not given: the % may be the effect or the level left
[4] = target: T1, Heat shock protein HSP90 (Homo sapiens); assay: Inhibition of HSP90 in human MCF7 cells assessed as induction of apoptosis by measuring necrotic cells at 10 uM measured after 24 hrs by annexinV-FITC/propidium iodide staining based flow cytometry (reference value: 0.01 %); format: cell-based; set-up: scale not given: the % may be the effect or the level left
[5] = target: T1, Heat shock protein HSP90 (Homo sapiens); assay: Inhibition of HSP90 in human MCF7 cells assessed as induction of apoptosis by measuring total apoptotic and dead cell population at 0.5 uM measured after 24 hrs by annexinV-FITC/propidium iodide staining based flow cytometry (reference value: 9.23 %); set-up: scale not given: the % may be the effect or the level left
[6] = target: T1, Heat shock protein HSP90 (Homo sapiens); assay: Inhibition of HSP90 in human MCF7 cells assessed as induction of apoptosis by measuring total apoptotic and dead cell population at 4 uM measured after 24 hrs by annexinV-FITC/propidium iodide staining based flow cytometry (reference value: 9.23 %); set-up: scale not given: the % may be the effect or the level left
[7] = target: T1, Heat shock protein HSP90 (Homo sapiens); assay: Inhibition of HSP90 in human MCF7 cells assessed as induction of apoptosis by measuring total apoptotic and dead cell population at 0.5 to 4 uM measured after 24 hrs by annexinV-FITC/propidium iodide staining based flow cytometry; conditions: dose microM 0.5-4, time 24.0 hrs
[8] = target: T1, Heat shock protein HSP90 (Homo sapiens); assay: Inhibition of HSP90 in human MCF7 cells assessed as induction of morphological changes by measuring membrane blebbing at 2.5 to 10 uM by acridine orange/ethidium bromide staining based fluorescence microscopy analysis; format: cell-based; conditions: dose microM 2.5-10
[9] = target: T1, Heat shock protein HSP90 (Homo sapiens); assay: Inhibition of HSP90 in human MCF7 cells assessed as induction of morphological changes by measuring chromatin condensation and fragmentation in nucleus at 2.5 to 10 uM by acridine orange/ethidium bromide staining based fluorescence microscopy analysis; format: cell-based; conditions: dose microM 2.5-10
[10] = target: T1, Heat shock protein HSP90 (Homo sapiens); assay: Inhibition of HSP90 in human MCF7 cells assessed as induction of morphological changes by measuring apoptotic body formation at 2.5 to 10 uM by acridine orange/ethidium bromide staining based fluorescence microscopy analysis; format: cell-based; conditions: dose microM 2.5-10
[11] = target: T1, Heat shock protein HSP90 (Homo sapiens); assay: Inhibition of HSP90 in human MCF7 cells assessed as induction of nuclear morphological changes by measuring horse shoe shaped nuclei formation at 2.5 to 10 uM by DAPI staining based fluorescence microscopy analysis; format: cell-based; conditions: dose microM 2.5-10
[12] = target: T1, Heat shock protein HSP90 (Homo sapiens); assay: Inhibition of HSP90 in human MCF7 cells assessed as induction of nuclear morphological changes by measuring nuclear fragmentation at 2.5 to 10 uM by DAPI staining based fluorescence microscopy analysis; format: cell-based; conditions: dose microM 2.5-10
[13] = target: T1, Heat shock protein HSP90 (Homo sapiens); assay: Inhibition of HSP90 in human MCF7 cells assessed as induction of mitochondrial membrane potential loss by measuring cell population with intact mitochondrial membrane potential at 2.5 uM after 24 hrs by JC1 staining-based flow cytometry analysis (reference value: 92.39 %); set-up: scale not given: the % may be the effect or the level left
[14] = target: T1, Heat shock protein HSP90 (Homo sapiens); assay: Inhibition of HSP90 in human MCF7 cells assessed as induction of mitochondrial membrane potential loss by measuring cell population with mitochondrial membrane potential collapse at 2.5 uM after 24 hrs by JC1 staining-based flow cytometry analysis (reference value: 6.53 %); set-up: scale not given: the % may be the effect or the level left
[15] = target: T1, Heat shock protein HSP90 (Homo sapiens); assay: Inhibition of HSP90 in human MCF7 cells assessed as induction of mitochondrial membrane potential loss by measuring cell population with intact mitochondrial membrane potential at 5 uM after 24 hrs by JC1 staining-based flow cytometry analysis (reference value: 92.39 %); set-up: scale not given: the % may be the effect or the level left
[16] = target: T1, Heat shock protein HSP90 (Homo sapiens); assay: Inhibition of HSP90 in human MCF7 cells assessed as induction of mitochondrial membrane potential loss by measuring cell population with mitochondrial membrane potential collapse at 5 uM after 24 hrs by JC1 staining-based flow cytometry analysis (reference value: 6.53 %); set-up: scale not given: the % may be the effect or the level left
[17] = target: T1, Heat shock protein HSP90 (Homo sapiens); assay: Inhibition of HSP90 in human MCF7 cells assessed as induction of mitochondrial membrane potential loss by measuring cell population with intact mitochondrial membrane potential at 10 uM after 24 hrs by JC1 staining-based flow cytometry analysis (reference value: 92.39 %); set-up: scale not given: the % may be the effect or the level left
[18] = target: T1, Heat shock protein HSP90 (Homo sapiens); assay: Inhibition of HSP90 in human MCF7 cells assessed as induction of mitochondrial membrane potential loss by measuring cell population with mitochondrial membrane potential collapse at 10 uM after 24 hrs by JC1 staining-based flow cytometry analysis (reference value: 6.53 %); set-up: scale not given: the % may be the effect or the level left
[19] = target: T1, Heat shock protein HSP90 (Homo sapiens); assay: Inhibition of HSP90 in human MCF7 cells assessed as induction of mitochondrial membrane potential loss by measuring cell population with mitochondrial membrane potential collapse at 2.5 to 10 microM after 24 hrs by JC1 staining-based flow cytometry analysis; conditions: dose microM 2.5-10, time 24.0 hrs
[20] = target: T1, Heat shock protein HSP90 (Homo sapiens); assay: Inhibition of HSP90 in human MCF7 cells assessed as increase in ROS generation by measuring fluorescence intensity at 2.5 to 10 uM after 24 hrs by DCFDA staining based flow cytometry; format: cell-based; conditions: dose microM 2.5-10, time 24.0 hrs

Activity [1]: 62.3%
Activity [2]: 4.11%
Activity [3]: 30.5%
Activity [5]: 12.1%
Activity [6]: 34.7%
inhibition [7]: Dose-dependent effect
inhibition [8]: Dose-dependent effect
inhibition [9]: Dose-dependent effect
inhibition [10]: Dose-dependent effect
inhibition [11]: Dose-dependent effect
inhibition [12]: Dose-dependent effect
Activity [13]: 85.4%
Activity [14]: 12.7%
Activity [15]: 75.3%
Activity [16]: 21.8%
Activity [17]: 46%
Activity [18]: 53%
inhibition [19]: Dose-dependent effect
inhibition [20]: Dose-dependent effect
Compound: Nc1nc(-c2ccc(Br)cc2)cc(-c2cn(-c3ccc(Cl)cc3)nc2-c2ccc([N+](=O)[O-])cc2)n1
Activity [4]: 0.12%
